In PubChem BioAssay AID651676 (Sanford-Burnham Center for Chemical Genomics, 2012):
Active and inactive are the calls of the source.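 How the source made its calls: active means EC50 concentration giving half the maximal stem cell survival boost at or below 20 µM; inactive means the rest.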

Tested on: hiPSC single-cell survival, ATPlite luminescence
Assay: hiPSC dissociated-cell viability enhancement – luminescence, SAR follow-up (AID 651676)

Row | Structure (SMILES) | EC50
1 | NC(=O)c1ccc(NC(=O)CCC(=O)c2cccs2)cc1 | 10.5 µM
2 | O=C(Nc1ccncc1)c1cc(S(=O)(=O)N2CCOCC2)ccc1Cl | 26.3 µM (inactive)
3 | CC(C)n1c(O)c(C2c3cc(Cl)ccc3Oc3[nH]c(=O)n(C(C)C)c(=O)c32)c(=O)[nH]c1=O (stereo not drawn) | 42.3 µM (inactive)
4 | O=S(=O)(c1cccc2cnccc12)N1CCCNCC1 | 7.12 µM
5 | O=C(OCn1ncc(Cl)c(Cl)c1=O)c1cccc(C(F)(F)F)c1 | 21.6 µM (inactive)
6 | Cn1c(=O)c2c(ncn2CC(=O)NCc2cccnc2)n(C)c1=O | > 80 µM (inactive)
7 | O=C(OCn1ncc(Br)c(Br)c1=O)c1ccccc1Cl | 6.27 µM
8 | COc1ccc(NC(=O)/C(Cl)=C(/Cl)S(=O)(=O)Cc2ccc(C)cc2)cn1 | 16.6 µM
9 | COc1ccc(Cn2c(O)c(C=NCCCn3ccnc3)c(=O)[nH]c2=O)cc1 | > 80 µM (inactive)
10 | O=C(Nc1ccncc1)c1cc(S(=O)(=O)N2CCCC2)ccc1Cl | 20.6 µM (inactive)
11 | O=C(Nc1nc(-c2ccncc2)cs1)C1COc2ccccc2O1 (stereo not drawn) | 3.63 µM
12 | COc1ccc(CS(=O)(=O)/C(Cl)=C(/Cl)C(=O)Nc2ccc(OC)nc2)cc1 | 14.1 µM
13 | CC(C)NC(=O)c1ccc2c(c1)S(=O)(=O)c1ccccc1C2=O | > 80 µM (inactive)
